Values quoted from earlier work, collected in patent publication US6635280B2, “Extending the duration of drug release within the stomach during the fed mode” (DepoMed, Inc., priority 1997, dated 2003).

Settings: oral doses administered with or following a meal

Cc1c(O)cccc1C(=O)N[C@@H](CSc1ccccc1)[C@H](O)CN1C[C@H]2CCCC[C@H]2C[C@H]1C(=O)NC(C)(C)C [nelfinavir]
area under the plasma concentration-time curve, increase with or following a meal: two-fold to three-fold | peak plasma concentration, increase with or following a meal: two-fold to three-fold
